How the values were obtained:
tubule formation = test: Mouse aortic ring assay stimulated by a 4T1 tumor fragment; format: cell-based; conditions: 300 nM, day 8
Experimental: Neo-angiogenesis was studied in vitro by culturing rings of mouse thoracic aorta in 3-dimensional collagen gels, as previously described (2), but the mouse serum was replaced by a piece of 4T1 tumor. Briefly, 1 mm-long aortic ring-shaped fragments of 9-week old C57Bl/6J mice, and 1 mm^3 4T1 tumor pieces resected 21 days after orthotopic injection in mammary fat pad of BALB/c mice were embedded in a rat tail interstitial collagen gel (1.5 mg/mL). It was prepared by mixing 7.5 volumes of 2 mg/mL collagen (Collagen R, Serva), 1 volume of 10 x minimum essential medium (MEM, Life Technologies Ltd.), 1.5 volumes of NaHCO3 (15.6 mg/mL), and 0.1 volume 1 M NaOH to adjust the pH to 7.4. The collagen gels containing the aortic rings were polymerized in cylindrical agarose wells, and kept in triplicate at 37 °C in 60 mm diameter Petri dishes (bacteriological polystyrene; Falcon, Becton Dickinson). Each dish contained 6 mL of MCDB131 (Life Technologies Ltd.) supplemented with 25 mM NaHCO3, 1 % glutamine, 100 U/mL penicillin, and 100 µg/mL streptomycin. The cultures were kept at 37 °C in a humidified environment for 8 days and examined every other day with a Nikon microscope at appropriate magnification. […] Quantification of pseudo-tubules was performed at day 8 using an automated computer-assisted image analysis system (Morpho Expert V2.50, Explora Nova, La Rochelle, France). […]

RT-HAM-001 tumors = test: RT-001-HAM subcutaneous patient-derived xenograft tumor mouse model; format: in vivo, mice; conditions: 30 mg/kg twice per day, 7-day treatment
Experimental: Patient-derived tumors of the same passage were transplanted subcutaneously outbred athymic (nu/nu) female HSD mice. When tumor volume reached 726 to 1,437 mm^3, 4 donor mice were sacrificed by cervical dislocation, and tumors were aseptically excised and dissected. After removing necrotic areas, tumor fragments of approximately 20 mm^3 were transferred to culture medium before grafting. A total of 108 mice were anesthetized with 100 mg/kg ketamine hydrochloride (Virbac) and 10 mg/kg xylazine (Bayer). Then, a tumor fragment was placed in the subcutaneous tissue of an incision at the level of the interscapular region as described previously ([30]). All mice from the same experiment were implanted on the same day. A total of 54 mice with RT-001-HAM established growing tumor (P6.0.0/0) between 62.5 and 196 mm^3 were allocated according to tumor volume, ensuring homogenous median and mean tumor volume in each treatment arm. Treatments with 5 mL/kg vehicle, 30 mg/kg EVT801, or 30 mg/kg pazopanib started 15 days after tumor implantation and continued twice per day until termination 7 days later. Tumor volumes were measured via a caliper three times a week during the treatment period. All animals were weighed at the same time as tumor size measurement. Plasma and fresh tumor samples were collected at different timepoints after final dose at day 7 from all mice.

ERK1/2 phosphorylation = test: VEGF-C-induced ERK1/2 phosphorylation in hLMVEC; format: cell-based; conditions: Homo sapiens, read-out: IC50, inhibition of VEGF-C-induced ERK1/2 phosphorylation
Experimental: hLMVECs were plated in 6-well tissue culture plates at a density of 2 x 10^5 cells for 48 h. Cells were then serum deprived for 2 h and either stimulated or mock stimulated for 10 min with VEGFC (500 ng/mL) in the presence or absence of EVT801. Then, cells were lysed and subjected to phospho-MAPK array or to phospho-ERK ELISA according to manufacturer’s instructions.

In the case of CCn1c(N)c(-c2ncc[nH]2)c(=O)c2ccc(C#C[C@@](C)(O)COC)nc21 [EVT801], the “tubule formation (tubule length)” value (tubule formation) is reported as “prevents tumor-induced tubule formation almost completely”, the “T/C ratio, tumor volume” value (RT-HAM-001 tumors) is reported as 41% and the “size of necrotic areas in tumors” value (RT-HAM-001 tumors) is reported as “decreased”. For the same molecule, the “hypoxic areas (CAIX) in tumors” value (RT-HAM-001 tumors; not statistically significant) was “appeared to decrease hypoxia in half of the tumors” and the IC50 (ERK1/2 phosphorylation) was 13 nM.

From publication PMC10035370, “Targeting Tumor Angiogenesis with the Selective VEGFR-3 Inhibitor EVT801 in Combination with Cancer Immunotherapy” (Cancer Research Communications, 2022)
